In patent US12617831B2 (UNIVERSITE D'ANGERS, priority 2019, dated 2026):

Legend:
[1] = test system: MC3T3-E1 subclone 4 cells; format: cell-based, murine; details: for Interpretation of combination index on collagen maturity at EC50: 69 pM; for Interpretation of combination index on collagen maturity at EC50 / Interpretation of combination index on collagen maturity at […] EC50: t-test vs additivity 1.0±0.15; for Interpretation of combination index on collagen maturity at […] EC50: 100 pM; for Emax for dose-effect curves on collagen maturity: MC3T3-E1, day 14; for effect on collagen maturity index: MC3T3-E1, vs cultures without peptide (FIG. 20); for Cl at […] EC50 (combination index on collagen maturity): at […] mean EC50 of GIP and GLP-2, 100 pM; for Cl at […] EC50 (combination index on collagen maturity) / Cl at EC50 (combination index on collagen maturity): Chou & Talalay, mean ± SD; for Cl at EC50 (combination index on collagen maturity): at mean EC50 of GIP and GLP-2, 69 pM
Method: Briefly, MC3T3-E1 subclone 4 cells have been grown and propagated in α-MEM supplemented with 5% fetal bovine serum (FBS), 5% bovine calf serum (BCS), 100 U/mL penicillin, and 100 μg/mL streptomycin in a humidified atmosphere enriched with 5% CO2 at 37° C. […] This day was considered as day 1. The differentiation medium was replenished every two days. […] Cultures were rinsed at least six times with milliQ water, fixed in absolute ethanol, scrapped off the culture dish and transferred onto BaF2 windows where they were air-dried. Integrity of the collagen extracellular matrix was verified by comparing the obtained Fourier transform infrared spectrum with those of commercial collagen. Spectral analysis was performed using a Bruker Vertex 70 spectrometer (Bruker optics, Ettlingen, Germany) interfaced with a Bruker Hyperion 3000 infrared microscope equipped with a standard single element Mercury Cadmium Telluride (MCT) detector. Calibration of the infrared spectrometer is done once a week with a polystyrene film standard (Bruker optics). Infrared spectra were recorded at a resolution of 4 cm^-1, with an average of 32 scans in transmission mode. Background spectral images were collected under identical conditions from the same BaF2 windows at the beginning and end of each experiment to ensure instrument stability. At least 5 spectra were acquired for each condition and analyzed with a lab-made routine script (version 2.0) in Matlab R2016b (The Mathworks, Natick, MA). […] For GIP and GLP-2 dataset, the inventors used the collagen maturity data previously acquired and analyzed. First of all, collagen maturity obtained in control cultures, i.e. in the absence of double GIP/GLP-2 analogues, were averaged and subtracted to the all dataset. […] For each concentration of peptide, the mean, SD and number of events were computed. […] The GraphPad Prism analysis consisted in: […] Statistical Analysis […] Data are represented as mean±SD.

Murine Raw 264.7 cells = format: cell-based; details: for Emax, maximum inhibitory effect on osteoclastogenesis: Raw 264.7, * data obtained in previous experiments; for Cl at EC50 of GIP and GLP-2 (combination index for osteoclastogenesis): at 36.8 pM, Chou & Talalay; for Interpretation of combination index for osteoclastogenesis: at EC50 of GIP and GLP-2, 36.8 pM
Method: Murine Raw 264.7 cells were grown and expanded in propagation medium containing Dulbecco's modified Eagle medium (DMEM-Gibco) supplemented with 10% fetal bovine serum (FBS-Lonza), 100 U/mL penicillin and 100 μg/mL streptomycin (Gibco) in a humidified atmosphere enriched with 5% CO2 at 37° C. The first passage after thawing Raw 264.7 cells was considered as passage 1. Cells were used up to passage 8. […] Cultures were rinsed three times in distilled water and the residual activity was inhibited by 4% NaF (Sigma-Aldrich) for 30 min. Cells were then rinsed in distilled water and allowed to dry. TRAcP positive cells, with more than three nuclei, were identified as osteoclasts. The number of newly generated osteoclasts was assessed using light microscopic examination by a histologist that was blinded to the treatment intervention. […] For each concentration of peptide, the mean, SD and number of events were computed.

Compound	EC50 [1]	Interpretation of combination index on collagen maturity at EC50 [1]	Interpretation of combination index on collagen maturity at […] EC50 [1]	Emax for dose-effect curves on collagen maturity [1]	effect on collagen maturity index [1]	Cl at […] EC50 (combination index on collagen maturity) [1]	Cl at EC50 (combination index on collagen maturity) [1]	Emax, maximum inhibitory effect on osteoclastogenesis (Murine Raw 264.7 cells)	Cl at EC50 of GIP and GLP-2 (combination index for osteoclastogenesis) (Murine Raw 264.7 cells)	Interpretation of combination index for osteoclastogenesis (Murine Raw 264.7 cells)	EC50 (Murine Raw 264.7 cells)	IC50 computed from curve fitting of osteoclastogenesis vs. peptide concentration (Murine Raw 264.7 cells; Raw 264.7, RANKL 10 ng/ml, 110 h, * values determined from previous experiments)
CC[C@H](C)[C@H](NC(=O)[C@H](Cc1ccccc1)NC(=O)[C@H](CC(=O)O)NC(=O)[C@H](CCCNC(=N)N)NC(=O)[C@H](C)NC(=O)[C@H](C)NC(=O)[C@H](CC(C)C)NC(=O)[C@H](CC(N)=O)NC(=O)[C@H](CC(=O)O)NC(=O)[C@H](CC(C)C)NC(=O)[C@@H](NC(=O)[C@@H](NC(=O)[C@H](CO)NC(=O)[C@H](Cc1ccc(O)cc1)NC(=O)[C@H](CC(=O)O)NC(=O)[C@H](CO)NC(=O)[C@@H](NC(=O)[C@H](Cc1ccccc1)NC(=O)[C@@H](NC(=O)CNC(=O)[C@H](CC(=O)O)NC(=O)[C@H](C)NC(=O)[C@@H](N)Cc1c[nH]cn1)[C@@H](C)O)[C@@H](C)CC)[C@@H](C)O)[C@@H](C)CC)C(=O)N[C@@H](CC(N)=O)C(=O)N[C@@H](Cc1c[nH]c2ccccc12)C(=O)N[C@@H](CC(C)C)C(=O)N[C@H](C(=O)N[C@@H](CCC(N)=O)C(=O)N[C@H](C(=O)N[C@@H](CCCCN)C(=O)N[C@H](C(=O)N[C@H](C(=O)N[C@@H](CC(=O)O)C(N)=O)[C@@H](C)O)[C@@H](C)CC)[C@@H](C)O)[C@@H](C)CC [Co-3]	0.0194 nM	Additive (CI 0.85-1.15: additive)	Additive (CI 0.85-1.15: additive)	121.8%	very modest	1.79 ± 2.20	1.29 ± 1.65	37.88%	48.00	Very strong antagonism (CI>10: very strong antagonism)	–	–
CC[C@H](C)[C@H](NC(=O)[C@H](Cc1ccccc1)NC(=O)[C@H](CC(=O)O)NC(=O)[C@H](CCCNC(=N)N)NC(=O)[C@H](C)NC(=O)[C@H](C)NC(=O)[C@H](CC(C)C)NC(=O)[C@H](CC(N)=O)NC(=O)[C@H](CC(=O)O)NC(=O)[C@H](CC(C)C)NC(=O)[C@@H](NC(=O)[C@@H](NC(=O)[C@H](CO)NC(=O)[C@H](Cc1ccc(O)cc1)NC(=O)[C@H](CC(=O)O)NC(=O)[C@H](CO)NC(=O)[C@@H](NC(=O)[C@H](Cc1ccccc1)NC(=O)[C@@H](NC(=O)CNC(=O)[C@H](CC(=O)O)NC(=O)[C@H](C)NC(=O)[C@@H](N)Cc1c[nH]cn1)[C@@H](C)O)[C@@H](C)CC)[C@@H](C)O)[C@@H](C)CC)C(=O)N[C@@H](CC(N)=O)C(=O)N[C@@H](Cc1c[nH]c2ccccc12)C(=O)N[C@@H](CC(C)C)C(=O)N[C@H](C(=O)N[C@@H](CCC(N)=O)C(=O)N[C@H](C(=O)N[C@@H](CCCCN)C(=O)NCC(=O)N[C@@H](CCCCN)C(=O)N[C@@H](CCCCN)C(N)=O)[C@@H](C)O)[C@@H](C)CC [Co-19]	0.0229 nM	Additive (CI 0.85-1.15: additive)	Additive (CI 0.85-1.15: additive)	118.1%	very modest	389.0 ± 864	277.7 ± 617.4	62.36%	1.94	Antagonism (CI 1.45-3.3: antagonism)	0.0324 nM	0.0324 nM
